Experimental data published in ChEMBL document CHEMBL1201862, “PubChem BioAssay data set” (2004).
Activity calls are given as the source filed them.

Target: T1, Carboxy-terminal domain RNA polymerase II polypeptide A small phosphatase 1 (Homo sapiens, UniProt Q9GZU7)
T1 sequence (Q9GZU7 whole entry): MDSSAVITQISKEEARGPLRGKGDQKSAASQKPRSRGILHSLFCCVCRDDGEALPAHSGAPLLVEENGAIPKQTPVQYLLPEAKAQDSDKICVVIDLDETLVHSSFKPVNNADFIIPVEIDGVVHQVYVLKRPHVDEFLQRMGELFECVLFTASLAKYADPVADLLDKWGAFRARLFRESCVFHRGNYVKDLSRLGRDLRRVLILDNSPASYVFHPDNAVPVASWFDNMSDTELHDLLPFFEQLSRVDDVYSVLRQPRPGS
Test: CTDSP1 inhibitors, concentration-response, biochemical, absorbance readout, ultra-high-throughput screen actives (AID 540297)
Format: functional
Settings: not given

IC50	SMILES
10.2 µM (active)	O=C(NN=C1CCCC1)c1cc(O)cc(O)c1

Target: T2, Calpain-2 catalytic subunit (Sus scrofa, UniProt P43367)
T2 sequence (P43367 whole entry): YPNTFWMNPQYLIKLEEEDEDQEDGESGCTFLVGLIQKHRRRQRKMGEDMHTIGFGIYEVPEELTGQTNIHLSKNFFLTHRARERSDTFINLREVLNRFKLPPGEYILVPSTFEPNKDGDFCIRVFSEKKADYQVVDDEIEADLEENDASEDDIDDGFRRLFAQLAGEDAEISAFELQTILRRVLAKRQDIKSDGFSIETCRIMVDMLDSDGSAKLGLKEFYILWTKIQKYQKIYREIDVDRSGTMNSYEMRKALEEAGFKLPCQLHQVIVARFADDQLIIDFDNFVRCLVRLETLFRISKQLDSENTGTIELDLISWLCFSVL
Test: m-calpain protease blockers, concentration series – biochemical, fluorogenic peptide substrate, dose response (AID 1420)
Format: functional
Settings: not given

IC50	SMILES
34.3 µM (not active)	N#Cc1nc(COc2ccccc2)oc1N1CCN(c2cccc(Cl)c2)CC1
< 0.4 µM (not active)	COc1ccc(CNC(=O)CCCn2nc([N+](=O)[O-])cc2C)cc1
8.4 µM (active)	COc1ccccc1/C=N/NC(=S)NCc1ccco1
5.83 µM (active)	O=C(Nc1cccc2oc(=O)ccc12)c1ccc([N+](=O)[O-])cc1[N+](=O)[O-]
> 50 µM (not active)	COc1cc(Cl)c(C)cc1NC(=O)CNC(C)c1ccccc1OC (stereo unspecified)

Target: T3, Rac GTPase-activating protein 1 (Homo sapiens, UniProt Q9H0H5)
T3 sequence (Q9H0H5 whole entry): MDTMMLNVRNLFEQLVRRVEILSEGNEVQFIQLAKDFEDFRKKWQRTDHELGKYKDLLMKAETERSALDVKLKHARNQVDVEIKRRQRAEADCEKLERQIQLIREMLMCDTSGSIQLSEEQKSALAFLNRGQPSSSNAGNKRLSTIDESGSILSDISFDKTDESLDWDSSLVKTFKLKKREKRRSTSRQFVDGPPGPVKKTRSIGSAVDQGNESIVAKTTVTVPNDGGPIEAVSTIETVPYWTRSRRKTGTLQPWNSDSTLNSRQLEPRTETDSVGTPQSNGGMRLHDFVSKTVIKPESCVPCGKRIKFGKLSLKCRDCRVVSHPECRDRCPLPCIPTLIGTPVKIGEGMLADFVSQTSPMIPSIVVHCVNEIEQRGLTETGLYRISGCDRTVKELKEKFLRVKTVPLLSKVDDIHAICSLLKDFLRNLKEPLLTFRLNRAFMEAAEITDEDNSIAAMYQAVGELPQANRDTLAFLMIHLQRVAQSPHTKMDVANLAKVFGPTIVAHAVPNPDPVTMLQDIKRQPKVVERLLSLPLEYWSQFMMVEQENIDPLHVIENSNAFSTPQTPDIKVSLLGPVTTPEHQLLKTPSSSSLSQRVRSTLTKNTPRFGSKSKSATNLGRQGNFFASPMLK
Test: blockers of MgcRacGAP-driven Rac1 GTP hydrolysis – biochemical, ADP Hunter fluorescence, primary and confirmatory, confirmation (AID 624330)
Format: functional
Settings: not given

SMILES	IC50
CCN(CC)c1ccc(/C=C2/SC(=O)N(C(C)C)C2=O)o1	48.2 µM (active)

Tested on: not listed separately
Test: viability of uninfected HEp-2 cells – cell-based, HTS, cytotoxicity control for RSV inhibitor project, dose response (AID 2410)
Format: functional
Settings: human respiratory syncytial virus

SMILES	CC50
Cc1ccc(/C=C\c2[nH]ccc3c4ccccc4nc2-3)cc1	28.9 µM (active)

Tested on: not listed separately
Test: Luminescence Cell-Based Dose Retest to Confirm Inhibitors of Cancer Stem Cells. [Related pubchem assays (depositor defined):AID2717, AID2721]
Format: functional
Settings: Homo sapiens

SMILES	AC50
Cc1ccc(/C=C\c2[nH]ccc3c4ccccc4nc2-3)cc1	17.4 µM (active)
O=C(Nc1ccccc1)C1=C[C@@H](c2ccc(C(F)(F)F)cc2)C[C@@H](OCc2ccc(CO)cc2)O1	5.5 µM (active)
COc1cc(/C=C2/CCC/C(=C\c3cc(O)c(OC)c(Cl)c3)C2=O)cc(Cl)c1O	0.629 µM (active)
COc1cc(F)c(C2=CC(=O)C[C@H](c3ccc(Cl)cc3)C2)cc1F	1.43 µM (active)
Oc1ccc(N=Nc2ccc(Br)cc2)c(O)c1	4.2 µM (active)

Tested on: not listed separately
Test: reduction of Shn3 3'UTR-driven luciferase in osteoblasts – cell-based, Clone20 osteoblasts, firefly luciferase, cherry-picked, dose response (AID 624132);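 further: firefly luciferase luminescence from reporter carrying the Shn3 3'UTR in osteoblasts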
Format: functional
Settings: not given

SMILES	AC50
CCN(CC)c1ccc(/C=C2/SC(=O)N(C(C)C)C2=O)o1	3.46 µM (active)
COC(=O)c1ccc(S(=O)(=O)N2CCCN(Cc3ccccc3)CC2)n1C	51.1 µM (active)
Cc1ccc(NC(=O)C2CCC(C(C)(C)C)CC2)cc1S(=O)(=O)N1CCOCC1 (stereo unspecified)	12.2 µM (active)
CC(C)(C)c1nc(NCCN2CCOCC2)c2nnn(Cc3ccccc3Cl)c2n1	8.85 µM (active)
O=S(=O)(c1cccs1)N1CCN(CCOc2ccc(Cl)cc2)CC1	13.8 µM (active)

Tested on: not listed separately
Test: non-specific 3'UTR reporter inhibition in Clone20-Shn3RL – cell-based, Renilla luciferase, cherry-picked, counter-screen for Shn3 inhibitor project, dose response (AID 624133)
Format: functional
Settings: not given

SMILES	AC50
CCN(CC)c1ccc(/C=C2/SC(=O)N(C(C)C)C2=O)o1	7.5 µM (active)
COC(=O)c1ccc(S(=O)(=O)N2CCCN(Cc3ccccc3)CC2)n1C	28 µM (active)
O=S(=O)(c1cccs1)N1CCN(CCOc2ccc(Cl)cc2)CC1	23.9 µM (active)

Tested on: not listed separately
Test: loss of viability in HepG2 cells – cell-based, CellTiter-Glo, cherry-picked, cytotoxicity control for Shn3 inhibitor project, dose response (AID 624134)
Format: functional
Settings: not given

SMILES	AC50
CCN(CC)c1ccc(/C=C2/SC(=O)N(C(C)C)C2=O)o1	58.9 µM (active)
COC(=O)c1ccc(S(=O)(=O)N2CCCN(Cc3ccccc3)CC2)n1C	69.6 µM (active)
Cc1ccc(NC(=O)C2CCC(C(C)(C)C)CC2)cc1S(=O)(=O)N1CCOCC1 (stereo unspecified)	53.1 µM (active)
CC(C)(C)c1nc(NCCN2CCOCC2)c2nnn(Cc3ccccc3Cl)c2n1	56.5 µM (active)
O=S(=O)(c1cccs1)N1CCN(CCOc2ccc(Cl)cc2)CC1	37.6 µM (active)
